This note sets out measurements from article PMC6792352, “Limited Chemical Structural Diversity Found to Modulate Thyroid Hormone Receptor in the Tox21 Chemical Library” (Environmental Health Perspectives, 2019).

The series in a line: in vitro. The conditions noted are these: rat, gh3-tre-luc cells.

Structures can show the parent of a compound that is named as a salt.

A word on the CC50: it is the concentration that lowers cell viability or growth by half. Read a high CC50 as lower toxicity to the cells. Consider `NCCOS(=O)(=O)O` [2-Aminoethyl hydrogen sulfate], for which the CC50 at 24 h (AC50 (uM) modified / 1000, Tox21_110001=Tox21_302045, viability, 1 nM T3 present, 24 h) was > 90 µM.

On to `Oc1c(Br)cc(Br)c2cccnc12` [Broxyquinoline], for which the CC50 at 24 h (AC50 (uM) modified / 1000) was determined as 24.9 µM.

Consider `CCCCCc1ccc(Cl)cc1`, for which the CC50 at 24 h (AC50 (uM) modified / 1000) is > 90 µM.

Turning to `CC(=O)/C=C/c1ccccc1` [Methyl trans-styryl ketone], the cytotoxic concentration (CC50) at 24 h (AC50 (uM) modified / 1000, Tox21_110001=Tox21_301598, viability, 1 nM T3 present, 24 h) is > 90 µM.

As to `C=CC(=O)OCC1CCCO1` (centres unmarked) [Tetrahydrofurfuryl acrylate], the CC50 at 24 h (AC50 (uM) modified / 1000) was > 90 µM.

Consider `CCC(=C(CC)c1ccc(O)cc1)c1ccc(O)cc1` [(Z,E)-Diethylstilbestrol], for which, where the note is “AC50 (uM) modified / 1000”, the 50% cytotoxic concentration (CC50) at 24 h amounted to 12.2 µM.

For the compound `CCCCCCC#N` [Heptanenitrile], the CC50 at 24 h (AC50 (uM) modified / 1000, Tox21_110001=Tox21_200526, viability, 1 nM T3 present, 24 h) was > 90 µM.

With `CCOC(=O)/C=C(C)/C=C/C[C@@H](C)CCCC(C)C` [(7S)-Hydroprene], the CC50 at 24 h (AC50 (uM) modified / 1000, Tox21_110001=Tox21_111800, viability, 1 nM T3 present, 24 h) is > 50 µM and the 50% cytotoxic concentration (CC50) at 24 h (AC50 (uM) modified / 1000, Tox21_110001=Tox21_301066, viability, 1 nM T3 present, 24 h) came to 87.1 µM.

As to `CC(C)(C)c1ccc(S)cc1` [4-tert-Butylbenzenethiol], the 50% cytotoxic concentration (CC50) at 24 h (AC50 (uM) modified / 1000) was > 90 µM.

Turning to `CCN(CC)CCCC(C)Nc1cc(/C=C/c2ccccc2Cl)nc2cc(Cl)ccc12` (centres unmarked) [Aminoquinol], the CC50 at 24 h (AC50 (uM) modified / 1000) turned out to be 20.1 µM.

As to `C[C@]1(Cn2ccnn2)[C@H](C(=O)O)N2C(=O)C[C@H]2S1(=O)=O` [Tazobactam sodium], for the setting “AC50 (uM) modified / 1000”, the cytotoxic concentration (CC50) at 24 h is > 50 µM.

Turning to `Cc1cc(N)no1` [5-Methyl-3-isoxazolamine], the CC50 at 24 h (AC50 (uM) modified / 1000) was > 100 µM.

With `O=C(O)CCCc1ccc(N(CCCl)CCCl)cc1` [Chlorambucil], the midpoint of cytotoxicity (AC50 (uM) modified / 1000), the CC50 at 24 h, lay at 61 µM.

For the compound `CCCCNS(=O)(=O)c1ccc(C)cc1` [N-Butyl-p-toluenesulfonamide], the half-maximal cytotoxic concentration (CC50) at 24 h (AC50 (uM) modified / 1000) was > 90 µM.

Turning to `O=C(O)C(Cl)(Cl)Br` [Bromodichloroacetic acid], under “AC50 (uM) modified / 1000, Tox21_110001=Tox21_200923, viability, 1 nM T3 present, 24 h”, the half-maximal cytotoxic concentration (CC50) at 24 h is > 90 µM.

Consider `Nc1ncnc2c1ncn2[C@H]1CC[C@@H](CO)O1` [2',3'-Dideoxyadenosine], for which, for the setting “AC50 (uM) modified / 1000”, the 50% cytotoxic concentration (CC50) at 24 h was > 90 µM.

As for `O=[N+]([O-])c1ccc(Cl)cc1` [1-Chloro-4-nitrobenzene], under “AC50 (uM) modified / 1000, Tox21_110001=Tox21_202291, viability, 1 nM T3 present, 24 h”, the CC50 at 24 h is > 90 µM.

On to `Nc1c2c(nc3c1CCC3)CCCC2` [Ipidacrine hydrochloride hydrate], for which, for the setting “AC50 (uM) modified / 1000”, the CC50 at 24 h is > 50 µM.

For `CCC(=O)/C=C/c1ccc(OC)cc1` [1-(4-Methoxyphenyl)-1-pentene-3-one], the CC50 at 24 h (AC50 (uM) modified / 1000) is > 90 µM.

For `O=C(O)c1cccc([N+](=O)[O-])c1` [3-Nitrobenzoic acid], the CC50 at 24 h (AC50 (uM) modified / 1000) was > 90 µM.

Take `O=CCCc1ccccc1` [3-Phenylpropanal]: the CC50 at 24 h (AC50 (uM) modified / 1000) was > 90 µM.

In the case of `FC(F)(F)C(F)(F)C(F)(F)C(F)(F)C(F)(F)C(F)(F)F` [Perflexane], the half-maximal cytotoxic concentration (CC50) at 24 h (AC50 (uM) modified / 1000) is > 50 µM.

With `Cc1ccc(C)o1` [2,5-Dimethylfuran], the 50% cytotoxic concentration (CC50) at 24 h (AC50 (uM) modified / 1000) was > 90 µM.

As for `O=C1C(CC[S+]([O-])c2ccccc2)C(=O)N(c2ccccc2)N1c1ccccc1` (centres unmarked) [Sulfinpyrazone], under “AC50 (uM) modified / 1000”, the CC50 at 24 h was > 20 µM.

On to `Cc1cccc(CN2CCN(C(c3ccccc3)c3ccc(Cl)cc3)CC2)c1` (centres unmarked) [Meclozine dihydrochloride], for which, for the setting “AC50 (uM) modified / 1000”, the midpoint of cytotoxicity, the CC50 at 24 h, lay at 15.6 µM.

Turning to `CCc1oc2ccccc2c1C(=O)c1cc(Br)c(O)c(Br)c1` [Benzbromarone], it took 39.4 µM to reach half-maximal cytotoxicity (AC50 (uM) modified / 1000) (CC50 at 24 h).

On to `CC(=O)CC/C=C(\C)CC/C=C(\C)CC/C=C(\C)CCC=C(C)C` [Teprenone], for which the CC50 at 24 h (AC50 (uM) modified / 1000) is > 50 µM.

Turning to `Cc1onc(-c2ccccc2)c1-c1ccc(S(N)(=O)=O)cc1` [Valdecoxib], under “AC50 (uM) modified / 1000”, the 50% cytotoxic concentration (CC50) at 24 h was > 50 µM.

Take `COC(N)=O` [Methyl carbamate]: the CC50 at 24 h (AC50 (uM) modified / 1000) was > 90 µM.

Turning to `COc1cc2c(cc1OC)C(C(C(=O)N(CCc1ccc(OC)c(OC)c1OC)CCc1ccc(OC)c(OC)c1OC)c1ccccc1)=NCC2` (centres unmarked) [Pinokalant hydrochloride], the cytotoxic concentration (CC50) at 24 h (AC50 (uM) modified / 1000) came to 21.9 µM.

With `COc1ccc(NS(=O)(=O)c2ccc(N)cc2)nn1` [Sulfamethoxypyridazine], for the setting “AC50 (uM) modified / 1000”, the 50% cytotoxic concentration (CC50) at 24 h was > 20 µM.

`CCCCCCCCCCCCN(CCO)CCO` [Lauryldiethanolamine] registered a CC50 at 24 h (AC50 (uM) modified / 1000) of 14.8 µM.

Regarding `CC(C)(O)c1ccc(CNC(=O)c2cccnc2Oc2ccc3nonc3c2)cc1` [CP-612372], the cytotoxic concentration (CC50) at 24 h (AC50 (uM) modified / 1000) is > 90 µM.

`CCCCCCCCCCCCCCCCC(C(=O)O)C(O)(CC(=O)O)C(=O)O` (centres unmarked) [Agaric acid] showed a CC50 at 24 h (AC50 (uM) modified / 1000) of 29.5 µM.
